# US9572786B2, “Use of capsiate or dihydrocapsidate” (Catholic University Industry Academy Cooperation Foundation, priority 2007, dated 2017)
# What was measured:
# HUVEC [1] = experiment: [14C] sucrose permeability assay; type: cell-based, human; details: 5, 10, 25 μM, VEGF 50 ng/mL for 1 hour
# Description: [^14C] sucrose permeability assay was carried out in order to identify the effect of capsiate or dihydrocapsiate on VEGF-induced endothelial permeability. In brief, HUVEC were placed on a transwell filter (Corning Costar). At confluence, the cells were cultured in M199 medium containing 1% FBS for 3 hours. After treating with capsiate or dihydrocapsiate at different concentrations (5 μM, 10 μM, 25 μM) for 30 minutes, the cells were treated with VEGF (50 ng/mL) for 1 hour. [^14C] sucrose (0.8 μCi/mL, 50 μL) was added to the upper compartment. 30 minutes later, the irradiation level was measured at the lower compartment using a scintillation counter (Wallac, PerkinElmer).
# hairless mouse = experiment: Change of mouse skin tissue after UV, hematoxylin-eosin staining; type: in vivo; details: 4 times of UV irradiation every other day at 2.5 kJ/m^2
# Description: When the skin is exposed to UV, erythema, or […] of the skin, occurs accompanied by edema, prior to a variety of cellular changes including inflammation, apoptosis, carcinogenesis, or the like [Tadashi Terui, Hachiro Tagami, Mediators of inflammation involved in UVB erythema, Journal of Dermatological Science 23 Suppl. 1 (2000) S1S5]. In order to investigate the effect of capsiate on erythema accompanied by UV-induced inflammatory response, experiment was carried out as follows using hairless mouse. Test groups were as follows: non-treated group—treated with acetone only without UV irradiation; test group A—treated with 200 μL of 1 mM capsiate dissolved in acetone without UV irradiation; UV group—treated with acetone and UV; test group B—treated with UV and 200 μL of 1 mM capsiate dissolved in acetone every 24 hours.
# After 4 times of UV irradiation every other day at an intensity of 2.5 kJ/m^2, hematoxylin-eosin staining was carried out in order to observe the change of mouse skin tissue.
# HUVEC [2] = experiment: Tube formation on Matrigel; type: cell-based, human; details: 1, 5, 10, 25 μM, VEGF 10 ng/mL, 20 hours
# Description: The effect of capsiate or dihydrocapsiate on tube formation was investigated according to a method published in the literature [Lee O H et al., 1999, Biochem. Biophys. Res. Commun. 264; 743-750].
# In brief, 250 μL of growth factor-reduced Matrigel (10 mg protein/mL) was added to a 16 mm tissue culture well and subjected to polymerization at 37° C. for 30 minutes. HUVEC cultured for in M199 medium containing 1% FBS for 6 hours were treated with trypsin, collected, and resuspended in M199 medium containing 1% FBS. Capsiate or dihydrocapsiate at different concentrations (1 μM, 5 μM, 10 μM, 25 μM) were pre-treated at room temperature for 30 minutes. The cells were added to the Matrigel at a concentration of 1.8×10^5 cells/well and VEGF (10 ng/mL) was added. After culturing for 20 hours, photograph was taken (×200) and the area covered by the tube network was measured according to an optical imaging technique [scanned with Adobe Photoshop and measured with Image-Pro Plus (Media Cybermetics).
# [3] = tested on: Human umbilical vein endothelial cells (HUVEC); experiment: VEGF-induced proliferation of endothelial cells, MTT assay; type: cell-based; details: for proliferation of HUVEC induced by VEGF (MTT): 1, 5, 10, 25 μM, 10 ng/mL VEGF, 48 hours; for growth of HUVEC without VEGF (cell toxicity): concentration up to 50 μM without VEGF, not shown in figure
# Description: MTT assay was carried out investigate the effect of capsiate or dihydrocapsiate on the proliferation of endothelial cells (EC) induced by VEGF.
# Human umbilical vein endothelial cells (HUVEC) were placed on a gelatin-coated 24-well plate at a concentration of 2×10^4 cells/well. After culturing for 24 hours, followed by washing twice with M199 medium (Invitrogen, USA), the cells were cultured for 6 hours in M199 medium containing 1% FBS. After addition of capsiate or dihydrocapsiate at different concentrations (1 μM, 5 μM, 10 μM, 25 μM), followed by pre-culturing for 30 minutes, 10 ng/mL VEGF (Upstate, USA) was added and the cells were cultured for 48 hours. Then, 3-(4,5-dimethylthiazol-2-yl)-2,5-diphenyltetrazolium bromide salt (MTT) solution (0.5 mg/mL) was added and the cells were cultured at 37° C. for 3 hours. Remaining MTT was cautiously removed and the formed crystal was dissolved in DMSO for 30 minutes and subjected to absorbance measurement at 560 nm after mixing well for 5 minutes.
# PECAM-1 (CD31) = experiment: PECAM-1 expression in mouse skin, immunohistochemical staining; type: in vivo; details: mouse skin tissue of Example 5; treated prior to UV irradiation
# Description: In order to investigate the effect of capsiate on various intracellular angiogenesis-related expression factors, the inhibition effect of capsiate on angiogenesis factors induced by UV was evaluated using the mouse tissue of Example 5.
# To investigate this effect, the paraffin-embedded tissue prepared as in Example 6 was processed in the same manner as Example 6, treated with PECAM-1 antibody (1:100, BD Pharmingen, USA) on a slide, treated with biotinylated secondary antibody (DAKO code K0675; DAKO Corp., USA) for 30 minutes, and washed 3 times. After treatment with streptavidin-peroxidase (DAKO code K0675, DAKO Corp., USA) for 30 minutes, followed by washing 3 times with PBS, the tissue was stained using DAB (DAKO Corp., USA) for confirmation of the level of PECAM-1 expression.
# MMP-2 = experiment: Zymography of secreted MMP-2 after UV; type: cell-based, human; details: HaCaT culture medium; 10, 25, 50 μM; UV 100 J/m^2; 36 hours
# Description: Zymography was carried out in order to investigate the decrease of expression and activity of MMP-2 and MMP-9 in protein level.
# 5×10^5 HaCaT cells were placed on a 60 mm Petri dish and cultured for 24 hours in DMEM containing 10% FBS. Subsequently, the cells were cultured for 24 hours in DMEM containing 1% FBS until starvation. Then, after treating with capsiate at different concentrations (10 μM, 25 μM, 50 μM) for 30 minutes, followed by washing 3 times with PBS, UV was irradiated at an intensity of 100 J/m^2. Immediately after the UV irradiation, the cells were washed again with PBS and further cultured for 36 hours in DMEM containing 1% FBS, which was treated with capsiate at the same concentration as in the pre-treatment. After collecting the culture medium, the activity of MMP-2 and MMP-9 proteins secreted from the cells into the medium was measured. To this end, the mediums obtained from the same number of cells were concentrated to the same volume, and the temperature was maintained at 4° C. in order to avoid the effect on the protein activity.
# Thus prepared sample was subjected to electrophoresis at 4° C. using 7.5% acrylamide gel containing gelatin but without sodium dodecyl sulfate (SDS). […]
SMILES,VEGF-increased permeability of endothelial cells (HUVEC [1]),thickness of the epidermis (hematoxylin-eosin staining) (hairless mouse),VEGF-induced formation of tube-like structures (HUVEC [2]),proliferation of HUVEC induced by VEGF (MTT) [3],growth of HUVEC without VEGF (cell toxicity) [3],level of PECAM-1 expression (PECAM-1 (CD31)),expression and activity of MMP-2 (zymography) (MMP-2),expression and activity of pro-MMP-2 (zymography) (MMP-2)
COc1cc(COC(=O)CCCC/C=C/C(C)C)ccc1O [capsiate],decreased in a concentration-dependent manner,less thick,reduced,inhibited by capsiate or dihydrocapsiate in a concentration-dependent manner,grew normally,significantly lower,inhibited expression and activity,inhibited expression and activity
COc1cc(COC(=O)CCCCCCC(C)C)ccc1O [dihydrocapsiate],decreased in a concentration-dependent manner,,reduced,inhibited by capsiate or dihydrocapsiate in a concentration-dependent manner,grew normally,,,
